What all share (assay type): in vivo, mouse
Data set [1] has as its system p16-3MR mice. In words: ROC analysis of discriminatory power of circulating microRNAs. As to conditions: serum, RT-qPCR, symbol after the number = significance; for ROC Analysis AUC Senescence: DOX vs PBS; for ROC Analysis AUC Senolytic Treatment: DOX/GCV vs DOX. How it is done:
(§1) Statistical analysis was performed using Medcalc (version 18.2.1). Normal distribution was assessed using D'Agostino-Pearson test, where normality was accepted at p>0.05. One-way ANOVA together together with Student-Newman-Keuls test for all pairwise comparisons (post-hoc tests) was used to identify significant changes between groups (p<0.05). To assess the discriminatory power of individual microRNAs, receiver operating characteristic (ROC) analysis was applied. ROC curves were plotted using sensitivity (y-axis) and 1-specificity (x-axis) and the area under the ROC curve (AUC) was calculated. MicroRNAs with AUC-values of >0.7 were considered as good discriminators/biomarkers. MicroRNAs with AUC-values >0.8 were considered very good discriminators/biomarkers.
In order to assess the diagnostic power of circulating microRNAs for the exposure with senescence inducing substances (DOX) as well as the efficacy of senolytic treatment, ROC analysis was performed and the area-under-the-curve (AUC) was calculated. […] Table 23 below summarizes AUC values as well as 95% confidence intervals for 24 selected circulating microRNAs.
Background: Quantitative PCR measures a nucleic acid by following its amplification.

Data set [2] has as its system p16-3MR mice. In words: RT-qPCR verification of serum circulating microRNA changes, one-way ANOVA. As to conditions: for One-way ANOVA Senolytic Treatment (DOX/GCV) / One-way ANOVA Senescence (DOX vs PBS): serum; for One-way ANOVA Senolytic Treatment (DOX/GCV): DOX/GCV compared to DOX; for One-way ANOVA Senescence (DOX vs PBS): n=8 per group, male and female mice. How it is done: (§2) p16-3MR (Demaria et al, 2014, Developmental Cell 31:722-733) mice were bred in house and maintained in the AALAC-accredited Buck Institute for Research on Aging (Novato, Calif.) animal facility. 10 to 12-week-old p16-3MR […] mice were used for experiments. Mice were divided in 4 groups and each group consisted of 8 animals, 5 female, and 3 male, respectively. In group A, control mice were injected with PBS. In group B, mice were treated with Ganciclovir (GCV) (Sigma-Aldrich) dissolved in PBS for 5 consecutive days. In group C, mice were treated with one dose of Doxorubicine hydrochloride (Sigma-Aldrich) dissolved in PBS. In group D, mice were first treated with Doxorubicine and then treated 10 days later with GCV. Mice were intraperitoneally injected with one dose of 10 mg/kg of Doxorubicine hydrochloride, and GCV was administered daily by intraperitoneal injections for 5 consecutive days at concentration of 25 mg/kg in PBS. 4 days after the last GCV dose, animals were euthanized with CO2 and blood was withdrawn immediately. Blood was then incubated for 30 min at room temperature and centrifuged at 3400×g for 10 min. Serum was carefully collected in a sterile tube without disturbing the cell pellet and stored at −80° C. for further experiments.
Total RNA extraction was performed from 200 μl of serum using the Qiagen miRNeasy extraction kit (Qiagen, Germany). RNA yield was quality checked for homogenous extraction efficiency and hemolysis on the basis qPCR amplification of spiked-in as well as hemolysis-responsive RNAs (Blondal et al). In total 2 μl total RNA were used for reverse transcription using the Exiqon Universal RT kit II (Exiqon, Denmark). The obtained cDNA samples were pre-diluted 1:40 and subsequently mixed with SYBR Green® Mix (Exiqon, Denmark) to achieve a 1:100 dilution. The mix was distributed to primer-coated 384-well plates containing dried primer pairs for 96 selected microRNA or quality control assays. QPCR amplification was performed on a Roche LightCycler 480 II, using the manufacturer's recommendation for annealing, extension and denaturation.
Raw Cq-values were computed using the 2nd derivative method. Melting curves were checked for peaks to ensure specificity of the amplification reactions. Cq-values were subsequently normalized using Spike-In controls as references, to reduce technical noise in the data.
as §1

Data set [3] concerns p16-3MR mice. In words: Next generation sequencing of circulating miRNAs in serum after induction (dox) and removal (GCV) of senescent cells. As to conditions: NGS; for serum level after rescue with dox+GCV (removal of senescent cells) / serum level in dox-treated animals compared to PBS controls: in words; for log fold change: p16-3MR mice; for avg TPM dox: dox-treated p16-3MR mice. How it is done:
as §2, with “of” for “of 8 animals, 5 female, and”, “animals.” for “male, respectively.”
Total RNA extraction was performed from 200 μl of serum using the Qiagen miRNeasy™ extraction kit (Qiagen, Germany). RNA yield was quality checked for homogenous extraction efficiency and hemolysis on the basis qPCR amplification of spiked-in as well as hemolysis-responsive RNAs (Blondal et al). In total 2 μl total RNA were used for library preparation using the CleanTag library preparation protocol (Trilink Biotechnologies, USA), which uses chemically modified adapters to prevent adapter self-ligation. Library quality and yield was controlled using Bioanalyzer DNA-1000 chips. Due to the high purity, libraries were not purified prior to sequencing on an ILLUMINA™ NextSeq 500 sequencing system with 50 bp single-end reads.
Next-generation sequencing was performed at Exiqon (Denmark). Raw reads were quality filtered for a Q-score of 30 or higher. Adapter sequences were trimmed and the remaining reads were mapped against the mouse genome, miRBase, non-coding RNA databases and classified as either microRNAs, small RNAs, genome mapping RNAs or outmapped RNA sequences. Read counts were added for all microRNA isoforms (isomiRs) and normalized by dividing the microRNA read count by the total number of mapped reads and multiplying by 1 million (Tags Per Million). Tags per millions were used for data mining (PCA and hierarchical clustering) using the web-tool clustvis (Metsalu and Vilo 2015).
For differential expression analysis, the EdgeR statistical software package was used. For normalization, the trimmed mean of M-values method was used based on log-fold and absolute gene wise changes in expression levels between samples (TMM normalization). […] Additionally, the normalization step offsets under-sampling effects (due to highly expressed microRNAs dominating the read set) by identifying scaling factors that minimize log-fold changes between samples across the majority of microRNAs.
For exploratory data analysis we applied principal component analysis (PCA) to the dataset of 50 most variable microRNAs according to the coefficient of variation. The PCA plot clearly indicates an effect of […] (dox) treatment on circulating microRNA levels in p16-3MR mice compared to the PBS treated control animals (FIG. 2). […] Analysis of differentially circulating miRNAs was focused on changes between dox treated versus control (PBS) to identify those miRNAs that are modulated by induction of senescence, as well as dox-GCV vs dox, in order to identify miRNAs that change after removal of senescent cells. A p-value threshold of <0.05 without correction for multiple testing was used. […] GCV-treated animals are supposed to have a reduced number of senescent cells compared to PBS due to forced apoptosis. […]

Entries after “also recorded” stand apart in the source; their conditions may differ. Marks after values point to notes of the source that are not given here.

For the substance “miR-27a-3p: circulating microRNA biomarker, SEQ ID No. 5 (UUCACAGUGGCUAAGUUCCGC; expressed or natural sequence; listed as Homo sapiens)”, in the data set with p16-3MR mice [1], the “ROC Analysis AUC Senescence” value was determined as 0.664° and the “ROC Analysis AUC Senolytic Treatment” value is given as 0.719+. The “change of serum level following senolytic treatment (DOX/GCV compared to DOX)” value in the data set with p16-3MR mice [2] (p<0.05, in words) is reported as “significantly changed”. Moreover, in the data set on p16-3MR mice [2], the “One-way ANOVA Senolytic Treatment (DOX/GCV)” value is listed as “* (significant p < 0.05)” and the “One-way ANOVA Senescence (DOX vs PBS)” value is reported as “○”. For the same substance, in the data set with p16-3MR mice [3], the “serum level after rescue with dox+GCV (removal of senescent cells)” value (shortened to “serum level after rescue with dox+GCV”) was “decreased” and the “serum level in dox-treated animals compared to PBS controls” value is recorded as “higher; also recorded: increased”. In addition, in the data set on p16-3MR mice [3] (serum miRNA, dox vs pbs), the log fold change is given as 1.08. In addition, the “avg TPM dox” value in the data set with p16-3MR mice [3] (serum miRNA) was 16.50 TPM.

For “miR-34a-5p: circulating microRNA biomarker, SEQ ID No. 1 (UGGCAGUGUCUUAGCUGGUUGU; expressed or natural sequence; listed as Homo sapiens)”, in the data set on p16-3MR mice [1], the “ROC Analysis AUC Senescence” value is listed as 1.000* and the “ROC Analysis AUC Senolytic Treatment” value is reported as 0.672°. In addition, the “regulation in serum after exposure to DOX compared to PBS” value in the data set on p16-3MR mice [2] (independent of gender, in words) is on record as “significantly (up- or down-regulated)”. Also, in the data set with p16-3MR mice [2], the “One-way ANOVA Senolytic Treatment (DOX/GCV)” value is “○” and the “One-way ANOVA Senescence (DOX vs PBS)” value is “* (significant p < 0.05)”. Besides, in the data set on p16-3MR mice [3], the “serum level after rescue with dox+GCV” value is “decreased” and the “serum level in dox-treated animals compared to PBS controls” value was “higher; also recorded: increased”. Besides, in the data set on p16-3MR mice [3] (listed as miR-34a), the “serum level after rescue with dox+GCV” value was “significant decline”. Moreover, the “avg TPM GCV” value with p16-3MR mice [3] (serum miRNA, comparison group of Table 17, printed GCV) turned out to be 8.00 TPM. The “avg TPM dox + GCV” value in the data set on p16-3MR mice [3] (serum miRNA, dox + GCV treated p16-3MR mice) was found to be 2.33 TPM. Moreover, the log fold change with p16-3MR mice [3] (serum miRNA, dox + gcv vs gcv (so in the source)) is listed as −1.34. For the same substance, the log fold change with p16-3MR mice [3] (serum miRNA, dox vs pbs) was 1.13. In the data set with p16-3MR mice [3] (serum miRNA), the “avg TPM dox” value is 8.00 TPM.

As for “mmu-miR-143-3p: circulating microRNA, SEQ ID No. 4 (UGAGAUGAAGCACUGUAGCUC; expressed or natural sequence; listed as Homo sapiens)”, the log fold change in the data set on p16-3MR mice [3] (serum miRNA, dox vs pbs) is −1.57. The “avg TPM dox” value in the data set with p16-3MR mice [3] (serum miRNA) was 393.00 TPM.

Consider “mmu-miR-144-5p: circulating microRNA, SEQ ID No. 7 (GGAUAUCAUCAUAUACUGUAAG; expressed or natural sequence; listed as Homo sapiens)”, for which, in the data set with p16-3MR mice [3] (serum miRNA, dox vs pbs), the log fold change is −1.06. Moreover, the “avg TPM dox” value in the data set on p16-3MR mice [3] (serum miRNA) was found to be 34.50 TPM.

For the origin of these results see patent US11814680B2, “Biomarkers for detecting senescent cells” (Universität für Bodenkultur Wien, priority 2017, dated 2023).
